# From patent US20220412955A1, “A MODEL OF CLINICAL SYNERGY IN CANCER” (priority 2019, published 2022)
# System: primary MM cells
# Format: cell-based
# Details: patient 210's primary MM cells, 0.05 μM, interval of 120 hours
# Description: Each well was imaged every 30 minutes for a total duration of up to 6 days.
smiles,measurement,value
CC(C)C[C@H](NC(=O)[C@H](CCc1ccccc1)NC(=O)CN1CCOCC1)C(=O)N[C@@H](Cc1ccccc1)C(=O)N[C@@H](CC(C)C)C(=O)[C@@]1(C)CO1 [carfilzomib],delay between start of treatment and initiation of cell death,~30 h
